Reference: patent publication US9464141B2, “Anti-ETBR antibodies and immunoconjugates” (Genentech, Inc., priority 2012, dated 2016)
Starred links: 1 amine or outer side, 2 acyl side, 3 side chain; linkers in the order of their positions; H or OH if unused. Non-standard residues stand in square brackets, D forms with d. Residues, ends and D or L forms follow the SMILES beside them. *: point of attachment. Dolaproine = CO[C@@H]([C@@H]1CCCN1)[C@@H](C)C(=O)O; Hexanoyl(6-maleimido) = O=C1C=CC(=O)N1CCCCCC(=O)*; Dil = CC[C@H](C)[C@H](NC)[C@@H](CC(=O)O)OC; PABC = O=C(OCc1ccc(N[*:1])cc1)[*:2]; X1 = C[C@@H](N*)[C@@H](O)c1ccccc1; Cit = NC(=O)NCCC[C@H](N)C(=O)O; NMeV = CN[C@H](C(=O)O)C(C)C

Assays:
Test in all cases: In vitro cell proliferation, CellTiter-Glo, 5 days
Format in all cases: cell-based
Details in all cases: free linker-drug (without antibody)
[1] = system: In vitro-derived resistant UACC-257X2.2 cells
Description: For resistance developed in vitro, UACC-257X2.2 cells were adapted to increasing concentrations of anti-ETBR-vc-MMAE in culture dishes over the course of two months.
(§1) In vitro cell proliferation of the cell lines in the presence of the immunoconjugates was assessed. Cells were plated at 1,500 cells per well in 50 μL of normal growth medium in 96-well clear-bottom plates. Twenty-four hours later, an additional 50 μL of culture medium with serial dilutions of immunoconjugates (ch5E9-vc-MMAE or control anti-gD-vc-MMAE) were added to triplicate wells. Five days later, cell survival was determined using CellTiter-Glo Luminescent Cell Viability Reagent (G7572, Promega Corporation, Madison, Wis.) using an EnVision 2101 Mutilabel Reader (Perkin-Elmer, Waltham, Mass.).

[2] = system: In vivo-derived resistant UACC-257X2.2 cells
Description: For resistance developed in vivo, NCr nude mice (Taconic, Hudson, N.Y.) were inoculated subcutaneously in the dorsal right flank with 5 million UACC-257X2.2 cells in HBSS with Matrigel. UACC-257X2.2 cells are derived from UACC-257 cells (National Cancer Institute) and optimized for growth in vivo as follows. UACC-257 cells were injected subcutaneously in the right flank of female NCr nude mice to induce tumor growth. One tumor was harvested and grown in vitro (referred to as UACC-257X1.2 cell line). The UACC-257X1.2 line was injected again subcutaneously in the right flank of female NCr nude mice to improve the growth of the cell line in vivo. A tumor from the second injection round was collected and again adapted for in vitro growth to generate UACC-257X2.2.
Ten mice inoculated with UACC-257X2.2 cells were dosed with 3 mg/kg hu5E9.v1-MC-vc-PAB-MMAE intravenously on day 0. […]
In vitro cell proliferation of the cell lines in the presence of the immunoconjugates was assessed. […] Five days later, cell survival was determined using CellTiter-Glo Luminescent Cell Viability Reagent (G7572, Promega Corporation, Madison, Wis.) using an EnVision 2101 Mutilabel Reader (Perkin-Elmer, Waltham, Mass.).

[3] = system: Parental UACC-257X2.2 cells
Description: as §1

## CC[C@H](C)[C@@H]([C@@H](CC(=O)N1CCC[C@H]1[C@H](OC)[C@@H](C)C(=O)N[C@H](C)[C@@H](O)c1ccccc1)OC)N(C)C(=O)[C@@H](NC(=O)[C@H](C(C)C)N(C)C(=O)OCc1ccc(NC(=O)[C@H](CCCNC(N)=O)NC(=O)[C@@H](NC(=O)CCCCCN2C(=O)C=CC2=O)C(C)C)cc1)C(C)C [free MC-vc-PAB-MMAE] ({Hexanoyl(6-maleimido)}-V[Cit][PABC][NMeV]V[Dil][Dolaproine]-X1)
[1]
  EC50: 3.5 nM
[2]
  EC50: 0.77 nM
[3]
  EC50: 0.28 nM
